{"source": "patent US7307101B2", "about": "“Use of 20-HETE synthesizing enzyme inhibitors as therapy for cerebral vascular disease” (MCW Research Foundation, Inc., priority 2000, dated 2007)", "key": {"[1]": {"target": "20-HETE synthesizing enzyme", "assay": "20-HETE formation in rat renal microsomes ([3H]-AA, Example 3)", "type": "biochemical", "protocol": "All procedure was carried out at 4° C. Renal cortex was pooled from twenty male SHR rats (6 weeks of age). They were homogenized extensively in lysis buffer (20 mM HEPES, pH 7.4, 1 mM EDTA, 100 μM p-(amidinophenyl)metanesulfonyl fluoride and 250 mM sucrose), and centrifuged at 16,000×g for 10 min. Supernatant was further centrifuged at 16,000×g for 30 min. Soluble fraction was collected and centrifuged at 200,000×g for 30 min. The resulting pellet was suspended in 50 mM MOPS buffer.\nThe reaction was terminated by adding formic acid and acetonitrile to a final concentration of 1% and 50%, respectively."}, "CYP2D6": {"target": "CYP2D6 (Homo sapiens, UniProt P10635)", "sequence (P10635 whole entry)": "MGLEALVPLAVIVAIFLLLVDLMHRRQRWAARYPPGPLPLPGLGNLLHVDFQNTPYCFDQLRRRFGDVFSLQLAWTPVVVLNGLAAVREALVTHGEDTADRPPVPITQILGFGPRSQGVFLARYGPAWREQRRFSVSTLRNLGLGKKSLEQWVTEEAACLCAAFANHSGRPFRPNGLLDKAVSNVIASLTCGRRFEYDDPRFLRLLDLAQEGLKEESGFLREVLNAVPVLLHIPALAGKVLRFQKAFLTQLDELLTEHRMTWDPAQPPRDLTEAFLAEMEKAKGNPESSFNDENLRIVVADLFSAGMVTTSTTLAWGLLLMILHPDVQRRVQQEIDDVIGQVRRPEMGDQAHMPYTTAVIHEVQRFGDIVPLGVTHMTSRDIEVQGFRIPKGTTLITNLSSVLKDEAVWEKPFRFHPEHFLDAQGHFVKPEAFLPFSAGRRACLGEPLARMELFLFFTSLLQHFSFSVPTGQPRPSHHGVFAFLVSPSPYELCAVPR", "assay": "in vitro", "from_the_text": "(§1) Microsomes prepared from the livers of 15 humans was purchased from Nippon Nosanko."}, "CYP3A4": {"target": "CYP3A4 (Homo sapiens, UniProt P08684)", "sequence (P08684 whole entry)": "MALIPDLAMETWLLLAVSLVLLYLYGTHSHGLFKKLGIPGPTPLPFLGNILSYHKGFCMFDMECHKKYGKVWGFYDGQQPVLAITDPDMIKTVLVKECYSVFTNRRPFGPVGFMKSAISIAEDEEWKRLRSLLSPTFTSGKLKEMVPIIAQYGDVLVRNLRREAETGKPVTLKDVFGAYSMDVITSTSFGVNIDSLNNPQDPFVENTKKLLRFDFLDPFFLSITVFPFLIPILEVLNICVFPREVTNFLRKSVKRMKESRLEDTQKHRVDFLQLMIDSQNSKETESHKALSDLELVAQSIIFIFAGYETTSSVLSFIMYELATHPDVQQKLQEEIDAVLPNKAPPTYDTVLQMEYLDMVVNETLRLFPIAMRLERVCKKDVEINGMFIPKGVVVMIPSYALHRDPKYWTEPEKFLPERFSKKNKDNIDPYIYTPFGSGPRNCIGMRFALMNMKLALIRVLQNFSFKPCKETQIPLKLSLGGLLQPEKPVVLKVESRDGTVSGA", "assay": "in vitro", "settings": "microsomes", "from_the_text": "as §1"}, "[2]": {"target": "human 20-HETE synthesizing enzyme", "assay": "Formation of 20-HETE by human renal microsomes", "type": "biochemical", "settings": "read-out: IC50, formation of 20-HETE by human renal microsomes", "protocol": "All reactions were terminated by acidification with 1% formic acid. Equal volume of acetonitrile was added and finally 50% acetonitrile mixtures were subjected to HPLC analysis."}, "CYP2C19": {"target": "T1, CYP2C19 (Homo sapiens, UniProt P33261)", "T1 construct": "The enzyme/substrate contained buffer, human liver microsomes and the following substrates; tissue Nippon Nosanko; host or cells: pooled human liver microsomes (15 donors)", "T1 sequence (P33261 whole entry)": "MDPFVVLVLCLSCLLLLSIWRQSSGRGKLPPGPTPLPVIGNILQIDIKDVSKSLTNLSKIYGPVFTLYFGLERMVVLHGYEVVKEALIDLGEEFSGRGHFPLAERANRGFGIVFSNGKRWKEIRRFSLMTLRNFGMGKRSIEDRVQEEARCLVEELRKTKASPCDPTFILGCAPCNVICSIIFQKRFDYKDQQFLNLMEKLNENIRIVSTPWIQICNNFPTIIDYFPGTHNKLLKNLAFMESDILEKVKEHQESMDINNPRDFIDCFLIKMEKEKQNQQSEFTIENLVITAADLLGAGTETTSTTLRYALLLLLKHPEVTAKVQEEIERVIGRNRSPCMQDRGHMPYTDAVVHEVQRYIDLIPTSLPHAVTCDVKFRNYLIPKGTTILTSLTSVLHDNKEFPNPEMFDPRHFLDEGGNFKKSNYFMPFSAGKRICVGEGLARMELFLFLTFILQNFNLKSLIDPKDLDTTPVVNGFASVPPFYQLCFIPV", "assay": "CYP2C19 activity in human liver microsomes", "type": "in vitro ADME", "from_the_text": "as §1"}, "20-HETE in CSF": {"tested_on": "20-HETE in CSF", "assay": "20-HETE concentration in CSF after SAH", "type": "in vivo, rat", "settings": "rats, 2 hr after SAH, drug given prior to SAH", "procedure": "Measurement of 20-HETE in CSF. At the end of each experiment, CSF was collected from the Cisterna Magna using a 1 ml syringe and a 30 gauge needle. […] 20-HETE concentration in CSF was measured using a new fluorescent HPLC assay that was recently described. […] Briefly, 50 ng of an internal standard 20-hydroxyeicosa-6(Z), 15(Z)-dienoic acid (WIT-002) was added to the CSF samples (50 μl). The samples were extracted with 1 mL of ethyl acetate, the extract was dried under argon and the lipid fraction was purified on a Sep-Pak Vac™ column (cat. no. WAT054955, Waters Corporation, Milford, Mass.). […] N,N-diisopropylethylamine (10 μl) was added to catalyze the reaction. The sample was reacted for 30 min at room temperature. […] The amount of 20-HETE in a sample was determined by comparing the area of the 20-HETE peak to that of the internal standard."}, "rats with SAH": {"tested_on": "rats with SAH", "assay": "Effect on rCBF after SAH, drug given before SAH", "type": "in vivo, rat", "protocol": "Animals. Experiments were performed on male Sprague-Dawley rats (9-12 weeks old), purchased from Harlan Sprague-Dawley, Inc. (Indianapolis, Ind.). The rats were housed in an Animal Care Facility at the Medical College of Wisconsin, which is approved by the American Association for the Accreditation of Laboratory Animal Care. All protocols involving animals received approval by the Animal Care Committee of the Medical College of Wisconsin.\n(§2) Surgical preparation. Rats were anesthetized with ketamine (Ketaject® 20 mg/kg i.m.) and thiobutabarbital sodium (Inactin® 50 mg/kg i.p.). A cannula was placed in the trachea and the rats were artificially ventilated using a small animal ventilator (SAR-830, CWE, Inc., Ardmore, Pa.) with a mixture of 30% O2 in N2. The femoral vein was cannulated for the infusion of drug and the rats received an i.v. infusion of 0.9% NaCl solution at a rate of […] to replace fluid losses. The femoral artery was cannulated for measurement of mean arterial pressure (MAP) and arterial blood gases. Endtidal partial pressure of carbon dioxide (pCO2) was controlled at 38 mmHg by adjusting the minute ventilation according to the reading of an CO2 analyzer (Capstar-100 IITC, Inc., Woodland Hills, Calif.). Blood samples were collected at the beginning and end of the experiment and analyzed using a blood gas analyzer (ABL 300, Radiometer, Copenhagen, Denmark) to validate the endtidal pCO2 readings. Anesthesia was maintained by administering additional amounts of thiobutabarbital (8 mg/kg i.v.) as needed. Rectal body temperature was maintained at 37±1° C.\nInduction of SAH and measurement of cerebral blood flow. SAH was induced by injection of 0.3 ml autologous arterial blood into the Cisterna Magna using a modification of a posterior cranio-cervical approach of a model of SAH. Delgado T J et al., Stroke 16: 595-602 (1985); Solomon R A et al., Stroke 16: 58-64 (1985). The head of the rat was placed in a stereotactic head holder and the atlanto-occipital membrane was exposed by bluntly separating the overlying neck muscles in the midline. The occipital bone and the atlas were visualized. A 30 gauge needle attached to PE-10 was inserted using a stereomicroscope into the Cistema Magna by penetrating the atlanto-occipital membrane. Then, 0.3 ml of freshly drawn unheparinized arterial blood was injected into the Cistema Magna at a rate of 35 μl/min using a syringe pump. This created a massive SAH that was confirmed in all rats at autopsy. Blood was found overlying the cerebello-medullary junction posteriorly and around the basal artery and the vessels of the Circle of Willis.\nCerebral blood flow (CBF) was continuously measured using laser Doppler flowmetry through a thinned cranial window. […] A PF 103 laser Doppler flow (LDF) probe was positioned over the cranial window and CBF was monitored using a PF-3 laser Doppler flowmeter (Perimed, Stockholm, Sweden).\nOther animals received 17-ODYA (1.5 nmol) or vehicle in a volume of 50 μl that was injected directly into the Cistema Magna using a micromanipulator and a 30 gauge needle. The CBF recorded over the last 5 minutes of the control period immediately before initiation of SAH served as the control value. […] CBF was recorded for 2 min intervals at 10, 20, 30, 60, 90 and 120 minutes after completion of the injection of the blood. The CBF data are expressed as percentage change from control."}, "[3]": {"assay": "Physiological parameters (MAP, endtidal pCO2) during the SAH experiment", "type": "in vivo, rat", "settings": "rats, any time", "protocol": "as §2"}, "CYP2C9": {"target": "CYP2C9 (Homo sapiens, UniProt P11712)", "sequence (P11712 whole entry)": "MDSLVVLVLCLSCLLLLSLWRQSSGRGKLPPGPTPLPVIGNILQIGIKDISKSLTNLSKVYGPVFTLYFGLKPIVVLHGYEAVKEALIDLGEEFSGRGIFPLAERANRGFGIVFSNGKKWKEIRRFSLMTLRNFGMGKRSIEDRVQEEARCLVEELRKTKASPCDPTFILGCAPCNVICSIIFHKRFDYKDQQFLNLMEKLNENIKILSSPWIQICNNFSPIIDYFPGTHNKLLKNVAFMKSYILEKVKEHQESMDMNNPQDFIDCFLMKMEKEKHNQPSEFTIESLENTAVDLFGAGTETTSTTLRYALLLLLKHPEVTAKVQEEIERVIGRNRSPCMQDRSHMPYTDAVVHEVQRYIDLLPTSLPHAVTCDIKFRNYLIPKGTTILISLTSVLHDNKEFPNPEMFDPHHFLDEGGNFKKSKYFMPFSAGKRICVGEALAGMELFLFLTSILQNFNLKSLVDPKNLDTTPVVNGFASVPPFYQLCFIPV", "assay": "in vitro", "from_the_text": "as §1"}, "20-HETE formation": {"tested_on": "20-HETE formation", "settings": "read-out: IC50 for inhibition of 20-HETE formation; cited from earlier work"}, "[4]": {"settings": "given systemically; cited from earlier work"}, "cerebral arteries": {"tested_on": "cerebral arteries", "settings": "read-out: EC50, constriction of cerebral arteries; cited from earlier work"}, "cerebral blood flow": {"tested_on": "cerebral blood flow", "settings": "intracerebroventricular injection; cited from earlier work"}, "[5]": {"settings": "human, microsomes, % Inhibition (duplicate) CYP2D6"}, "[6]": {"settings": "positive control, concentration not given"}, "[7]": {"settings": "only at very high concentrations"}}, "note": "“And” between values parts separate entries of the source, which are not always exact repeats. Equal values may be shown once.", "data": [{"smiles": "Nn1nnc2ccccc21", "note": "[1-ABT, 1-aminobenzotriazole]", "values": [{"measurement": "IC50, formation of both EETs and 20-HETE", "setting": "[1]; SHR rat renal microsomes, nonselective inhibitor", "result": "approximately 20 μg/ml"}, {"measurement": "IC50", "setting": "[1]; read-out: IC50, formation of both EETs and 20-HETE (molar), SHR rat renal microsomes, nonselective inhibitor", "result": "~150000", "unit": "nM"}, {"measurement": "% Inhibition (duplicate) CYP2D6", "setting": "CYP2D6; human, microsomes, 100 µM", "result": 42, "unit": "%"}, {"measurement": "inhibition at 100 µM", "setting": "CYP2D6; [5]", "result": "40 to 80", "unit": "%"}, {"measurement": "% Inhibition (duplicate) CYP3A4", "setting": "CYP3A4; 100 µM", "result": 81, "unit": "%"}, {"measurement": "IC50", "setting": "[2]", "result": "38500 ± 14900", "unit": "nM"}, {"measurement": "% Inhibition (duplicate) CYP2C19", "setting": "CYP2C19; inhibitor 100 μM, 100 µM", "result": "40-80% and 75%"}]}, {"smiles": "C#CCCCCCCCCCCCCCCCC(=O)O", "note": "[17-ODYA, 17-Octadecynoic acid]", "values": [{"measurement": "concentration of 20-HETE in the CSF versus vehicle", "setting": "20-HETE in CSF", "result": "significantly lower concentration"}, {"measurement": "fall in cerebral blood flow following SAH", "setting": "rats with SAH; 1.5 nmol into the Cisterna Magna of rats", "result": "completely blocked"}, {"measurement": "reduction of the initial fall in rCBF at 10 min", "setting": "rats with SAH; rats pretreated before SAH, HET0016 10 mg/kg i.v. 30 min prior, 17-ODYA 1.5 nmol intrathecally", "result": "about 40%"}, {"measurement": "time after induction of SAH within which rCBF recovered fully to values not different from control", "setting": "rats with SAH; rats pretreated before SAH, HET0016 10 mg/kg i.v., 17-ODYA 1.5 nmol intrathecally", "result": "≤ 90", "unit": "min"}, {"measurement": "MAP (blood pressure) versus vehicle", "setting": "[3]", "result": "no difference"}, {"measurement": "endtidal pCO2 versus vehicle", "setting": "[3]", "result": "no significant differences"}, {"measurement": "% Inhibition (duplicate) CYP2C9", "setting": "CYP2C9; human, microsomes, 10 µM", "result": 23, "unit": "%"}, {"measurement": "inhibition at 10 µM", "setting": "CYP2C9; human, microsomes, % Inhibition (duplicate) CYP2C9", "result": "20 to 30", "unit": "%"}, {"measurement": "inhibition at 10 µM", "setting": "CYP2D6; [5]", "result": -3, "unit": "%"}, {"measurement": "% Inhibition (duplicate) CYP3A4", "setting": "CYP3A4; 10 µM", "result": 29, "unit": "%"}, {"measurement": "inhibition at 10 µM", "setting": "CYP3A4; % Inhibition (duplicate) CYP3A4", "result": "20 to 30", "unit": "%"}, {"measurement": "IC50", "setting": "20-HETE formation", "result": 1000, "unit": "nM"}, {"measurement": "crossing of the blood brain barrier", "setting": "[4]", "result": "does not cross the blood brain barrier"}, {"measurement": "IC50", "setting": "[2]", "result": "1800 ± 800", "unit": "nM"}, {"measurement": "inhibition at 10 µM", "setting": "CYP2C19; human, human liver microsomes, probe 14C-(S)-mephenyloin (4′-hydroxylation), inhibitor 10 μM, read-out: % Inhibition (duplicate) CYP2C19", "result": 10, "unit": "%"}]}, {"smiles": "O=C(O)CCCC=CCC=CCC=CCC=CCCCCCO", "note": "[20-HETE, 20-hydroxyeicosetetraenoic acid]", "values": [{"measurement": "EC50", "setting": "cerebral arteries", "result": "< 10", "unit": "nM"}]}, {"smiles": "CS(=O)(=O)NC(=O)CCCCCCCCCC=C(Br)Br", "note": "[DDMS]", "values": [{"measurement": "effect on baseline cerebral blood flow", "setting": "cerebral blood flow", "result": "no effect"}, {"measurement": "IC50", "setting": "20-HETE formation", "result": 3000, "unit": "nM"}, {"measurement": "crossing of the blood brain barrier", "setting": "[4]", "result": "does not cross the blood-brain barrier"}]}, {"smiles": "C=C[C@H]1C[N@@]2CC[C@H]1C[C@@H]2[C@@H](O)c1ccnc2ccc(OC)cc12", "note": "[Quinidine]", "values": [{"measurement": "% Inhibition (duplicate) CYP2D6", "setting": "CYP2D6; [6]", "result": 91, "unit": "%"}]}, {"smiles": "Clc1ccc(COC(Cn2ccnc2)c2ccc(Cl)cc2Cl)c(Cl)c1", "note": "(stereo not drawn) [miconazole]", "values": [{"measurement": "concentrations at which the formation of 20-HETE was inhibited", "setting": "[1]; [7]", "result": "10 to 20", "unit": "µg/mL"}, {"measurement": "concentrations at which the formation of 20-HETE was inhibited (molar)", "setting": "[1]; [7]", "result": "21 to 42", "unit": "µM"}]}, {"smiles": "Nc1ccc(S(=O)(=O)Nc2ccnn2-c2ccccc2)cc1", "note": "[sulfaphenazol]", "values": [{"measurement": "% Inhibition (duplicate) CYP2C9", "setting": "CYP2C9; [6]", "result": 91, "unit": "%"}]}]}
